Values after ≈ are worked out from the molar mass of the structure shown.

Holding throughout (format): cell-based
The subject of assay [1] is Pasteurella multocida PM 12080 (IV102277-0093, BRD field isolate). The assay can be described thus: MIC, broth-microdilution (CLSI VET01-A4), strain PM 12080. The settings on record: Pasteurella multocida strain PM 12080, broth-microdilution; unit assumed. The gist of the method:
(§1)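 Broth microdilution per CLSI VET01-A4, using trays with a doubling dilution series of compound; results interpreted per CLSI VET01-S3. MIC taken as lowest concentration with no turbidity visible to the unaided eye.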

For assay [2], the system named is Pasteurella multocida PM 6267 (P 2225 (L386), reference strain, mouse infection strain). The assay can be described thus: MIC, broth-microdilution (CLSI VET01-A4), strain PM 6267. The settings on record: Pasteurella multocida strain PM 6267, broth-microdilution; unit assumed. The gist of the method:
as §1

For assay [3], the system named is Mannheimia haemolytica MH 13093 (XB0472-6014.1, BRD field isolate). The assay can be described thus: MIC, broth-microdilution (CLSI VET01-A4), strain MH 13093. The settings on record: Mannheimia haemolytica strain MH 13093, broth-microdilution; unit assumed. The gist of the method: as §1
The test system of assay [4] is Mannheimia haemolytica MH 6374 (ATCC 33396, reference strain). The assay can be described thus: MIC, broth-microdilution (CLSI VET01-A4), strain MH 6374. The settings on record: Mannheimia haemolytica strain MH 6374, broth-microdilution; unit assumed. The method, boiled down: as §1
The test system of assay [5] is Pasteurella multocida PM 10775 (080130003051, BRD field isolate). The assay can be described thus: MIC, broth-microdilution (CLSI VET01-A4), strain PM 10775. The settings on record: Pasteurella multocida strain PM 10775, broth-microdilution; unit assumed. The gist of the method:
as §1

Assay [6] has as its system Pasteurella multocida PM 6391 (ATCC 43137, reference strain). The assay can be described thus: MIC, broth-microdilution (CLSI VET01-A4), strain PM 6391. The settings on record: Pasteurella multocida strain PM 6391, broth-microdilution; unit assumed. The method, boiled down:
as §1

For assay [7], the system named is Mannheimia haemolytica MH 13065 (XB0446-6003.9, BRD field isolate). The assay can be described thus: MIC, broth-microdilution (CLSI VET01-A4), strain MH 13065. The settings on record: Mannheimia haemolytica strain MH 13065, broth-microdilution; unit assumed. The gist of the method:
as §1

Assay [8] concerns Mannheimia haemolytica MH 12587 (1071, BRD field isolate, macrolide-resistance: erm+, E+). The assay can be described thus: MIC, broth-microdilution (CLSI VET01-A4), strain MH 12587. The settings on record: Mannheimia haemolytica strain MH 12587, broth-microdilution; unit assumed. The method, boiled down: as §1
In assay [9] the test system is Mannheimia haemolytica MH 6357 (M7/2, reference strain, cattle infection strain). The assay can be described thus: MIC, broth-microdilution (CLSI VET01-A4), strain MH 6357. The settings on record: Mannheimia haemolytica strain MH 6357, broth-microdilution; unit assumed. The gist of the method: as §1
Assay [10] concerns Mannheimia haemolytica MH 10720 (154, BRD field isolate). The assay can be described thus: MIC, broth-microdilution (CLSI VET01-A4), strain MH 10720. The settings on record: Mannheimia haemolytica strain MH 10720, broth-microdilution; unit assumed. The gist of the method: as §1

With `CC(C)([C@H](NC(=O)c1ccc(C#Cc2ccc(CNCc3cccs3)cc2)cc1)C(=O)NO)S(C)(=O)=O` [Compound 271], the MIC PM 12080 in assay [1] is at most 0.1 µg/mL. Besides, the MIC PM 6267 in assay [2] was at most 0.1 µg/mL. This compound also gave an MIC MH 13093 in assay [3] of 0.4 µg/mL (≈ 0.741 µM). In [4], this compound had an MIC MH 6374 of 0.2 µg/mL (≈ 0.371 µM). This compound also gave an MIC PM 10775 in [5] of at most 0.1 µg/mL. In assay [6], this compound had an MIC PM 6391 of at most 0.1 µg/mL. In assay [7], the MIC MH 13065 is 0.2 µg/mL (≈ 0.371 µM). The MIC MH 12587 in assay [8] turned out to be 0.8 µg/mL (≈ 1.48 µM). This compound came in with an MIC MH 6357 in assay [9] of 0.4 µg/mL (≈ 0.741 µM). The MIC MH 10720 in assay [10] is at most 0.1 µg/mL.
As to `Cc1ccc(CNCc2ccc(C#Cc3ccc(C(=O)N[C@H](C(=O)NO)C(C)(C)S(C)(=O)=O)cc3)cc2)cc1` [Compound 272], in assay [1], the MIC PM 12080 is at most 0.1 µg/mL. In [2], the MIC PM 6267 was at most 0.1 µg/mL. In assay [3], the MIC MH 13093 amounted to 0.8 µg/mL (≈ 1.46 µM). For the same compound, the MIC MH 6374 in assay [4] stood at 0.4 µg/mL (≈ 0.73 µM). Also, in [5], the MIC PM 10775 is at most 0.1 µg/mL. Further, the MIC PM 6391 in assay [6] is 0.2 µg/mL (≈ 0.365 µM). In addition, the MIC MH 13065 in assay [7] turned out to be 0.2 µg/mL (≈ 0.365 µM). In addition, the MIC MH 12587 in [8] came to 1.6 µg/mL (≈ 2.92 µM). The compound also yielded an MIC MH 6357 in [9] of 0.8 µg/mL (≈ 1.46 µM). The compound further displayed an MIC MH 10720 in assay [10] of at most 0.1 µg/mL.
In assay [1], `CC(C)([C@H](NC(=O)c1ccc(C#Cc2ccc(CNCC3CCCO3)cc2)cc1)C(=O)NO)S(C)(=O)=O` (some centres unmarked) [Compound 273] came in with an MIC PM 12080 of at most 0.1 µg/mL. Further, the MIC PM 6267 in assay [2] was at most 0.1 µg/mL. Further, the MIC MH 13093 in assay [3] came out at 6.3 µg/mL (≈ 11.9 µM). For the same compound, the MIC MH 6374 in assay [4] worked out at 3.1 µg/mL (≈ 5.88 µM). The compound further came in with an MIC PM 10775 in [5] of at most 0.1 µg/mL. Besides, in assay [6], the MIC PM 6391 amounted to 0.2 µg/mL (≈ 0.379 µM). The same compound had an MIC MH 13065 in assay [7] of 3.1 µg/mL (≈ 5.88 µM). The compound further registered an MIC MH 12587 in [8] of 6.3 µg/mL (≈ 11.9 µM). This compound came in with an MIC MH 6357 in [9] of 6.3 µg/mL (≈ 11.9 µM). Besides, the MIC MH 10720 in [10] came out at 0.8 µg/mL (≈ 1.52 µM).
Take `CC(C)(O)[C@H](NC(=O)c1ccc(C#Cc2ccc(CNCc3ccncc3)cc2)cc1)C(=O)NO` [Compound 275]: in [1], the MIC PM 12080 was at most 0.1 µg/mL. In assay [2], this compound registered an MIC PM 6267 of at most 0.1 µg/mL. Also, the MIC MH 13093 in assay [3] was 0.4 µg/mL (≈ 0.846 µM). In assay [4], the MIC MH 6374 turned out to be 0.2 µg/mL (≈ 0.423 µM). The MIC PM 10775 in assay [5] was at most 0.1 µg/mL. In addition, the MIC PM 6391 in assay [6] was at most 0.1 µg/mL. The compound further returned an MIC MH 13065 in [7] of 0.2 µg/mL (≈ 0.423 µM). For the same compound, the MIC MH 12587 in [8] stood at 0.4 µg/mL (≈ 0.846 µM). This compound gave an MIC MH 6357 in assay [9] of 0.4 µg/mL (≈ 0.846 µM). The compound also came in with an MIC MH 10720 in assay [10] of at most 0.1 µg/mL.
The compound `CC(C)(C(NC(=O)c1ccc(C#Cc2ccc(CNCc3ccccc3)cc2)cc1)C(=O)NO)[N+](=O)[O-]` (centres unmarked) [Compound 276] yielded an MIC PM 12080 in assay [1] of at most 0.1 µg/mL. The compound further came in with an MIC PM 6267 in [2] of at most 0.1 µg/mL. In assay [3], this compound came in with an MIC MH 13093 of 0.8 µg/mL (≈ 1.6 µM). The compound further came in with an MIC MH 6374 in assay [4] of 0.8 µg/mL (≈ 1.6 µM). The MIC PM 10775 in assay [5] was at most 0.1 µg/mL. The compound further displayed an MIC PM 6391 in assay [6] of 0.4 µg/mL (≈ 0.799 µM). Moreover, in assay [7], the MIC MH 13065 turned out to be 0.4 µg/mL (≈ 0.799 µM). Further, in assay [8], the MIC MH 12587 amounted to 0.8 µg/mL (≈ 1.6 µM). Moreover, in assay [9], the MIC MH 6357 stood at 0.8 µg/mL (≈ 1.6 µM). This compound yielded an MIC MH 10720 in assay [10] of at most 0.1 µg/mL.
Regarding `CC(C)(C(NC(=O)c1ccc(C#Cc2ccc(CNCc3ccc(Cl)cc3)cc2)cc1)C(=O)NO)[N+](=O)[O-]` (centres unmarked) [Compound 277], the MIC PM 12080 in assay [1] turned out to be 0.4 µg/mL (≈ 0.748 µM). Also, the MIC PM 6267 in assay [2] was 0.4 µg/mL (≈ 0.748 µM). Also, in assay [3], the MIC MH 13093 was determined as 1.6 µg/mL (≈ 2.99 µM). The compound also displayed an MIC MH 6374 in assay [4] of 1.6 µg/mL (≈ 2.99 µM). The compound further came in with an MIC PM 10775 in [5] of at most 0.1 µg/mL. Also, in assay [6], the MIC PM 6391 amounted to 0.8 µg/mL (≈ 1.5 µM). In addition, the MIC MH 13065 in [7] was 1.6 µg/mL (≈ 2.99 µM). In assay [8], this compound showed an MIC MH 12587 of 3.1 µg/mL (≈ 5.79 µM). The MIC MH 6357 in assay [9] was found to be 1.6 µg/mL (≈ 2.99 µM). The compound further had an MIC MH 10720 in [10] of 0.4 µg/mL (≈ 0.748 µM).
In turn, `CC(C)(C(NC(=O)c1ccc(C#Cc2ccc(CNCc3ccncc3)cc2)cc1)C(=O)NO)[N+](=O)[O-]` (centres unmarked) [Compound 278] registered an MIC PM 12080 in [1] of at most 0.1 µg/mL. In assay [2], this compound displayed an MIC PM 6267 of at most 0.1 µg/mL. In assay [3], this compound showed an MIC MH 13093 of 0.4 µg/mL (≈ 0.798 µM). The same compound displayed an MIC MH 6374 in assay [4] of 0.4 µg/mL (≈ 0.798 µM). The compound further registered an MIC PM 10775 in assay [5] of at most 0.1 µg/mL. In addition, the MIC PM 6391 in assay [6] is at most 0.1 µg/mL. For the same compound, in [7], the MIC MH 13065 was 0.4 µg/mL (≈ 0.798 µM). The compound further registered an MIC MH 12587 in [8] of 0.8 µg/mL (≈ 1.6 µM). This compound also returned an MIC MH 6357 in assay [9] of 0.4 µg/mL (≈ 0.798 µM). In addition, the MIC MH 10720 in assay [10] was at most 0.1 µg/mL.
As to `CC(C)(C(NC(=O)c1ccc(C#Cc2ccc(CNCc3ccc(C(F)(F)F)cc3)cc2)cc1)C(=O)NO)[N+](=O)[O-]` (centres unmarked) [Compound 279], the MIC PM 12080 in [1] turned out to be 1.6 µg/mL (≈ 2.81 µM). Besides, the MIC PM 6267 in assay [2] is 0.4 µg/mL (≈ 0.704 µM). This compound also returned an MIC MH 13093 in assay [3] of 6.3 µg/mL (≈ 11.1 µM). The same compound gave an MIC MH 6374 in assay [4] of 6.3 µg/mL (≈ 11.1 µM). The same compound showed an MIC PM 10775 in assay [5] of 0.4 µg/mL (≈ 0.704 µM). Besides, in assay [6], the MIC PM 6391 turned out to be 1.6 µg/mL (≈ 2.81 µM). For the same compound, the MIC MH 13065 in assay [7] is 6.3 µg/mL (≈ 11.1 µM). The compound further had an MIC MH 12587 in [8] of 6.3 µg/mL (≈ 11.1 µM). In assay [9], the MIC MH 6357 came to 3.1 µg/mL (≈ 5.45 µM). For the same compound, in assay [10], the MIC MH 10720 stood at 1.6 µg/mL (≈ 2.81 µM).

The values above are taken from US11034650B2, “Compounds useful for treating a Mannheimia haemolytica or Histophilus somni infection” (Intervet Inc., priority 2016, dated 2021).
